Where “and” joins values, the source holds several entries; their conditions need not be identical. Equal entries are not always repeated. Where two headings read alike, the source gives them in different places.

Data set [1] has as its system TA100. To be noted: Salmonella typhimurium, 10 μg/plate.
Data set [2] relates to S. typhimurium strain TA1535. Particulars: Salmonella typhimurium, 10 μg/plate.
Another data set deals with TA98 strain. To be noted: Salmonella typhimurium.
The subject of another data set is TA1537 strain. The data set can be described thus: Ames test, strain TA1537. (The Ames test uses bacterial strains that need an amino acid and regain growth without it when mutated back.)
For data set [3] the following is noted: mouse, in vivo.
The conditions of data set [4]: mouse, in vivo, iv, 3.2 mg/kg.
Data set [5] can be described thus: Pharmacokinetic study of Motor1.ABZ, IP route (plasma, HPLC). To be noted: for plasma concentration: IP.
Data set [6] in a line: Pharmacokinetic study of Motor1.ABZ, IV route (plasma, HPLC). To be noted: for plasma concentration: IV.
The conditions of data set [7]: aqueous solution; cited from earlier work.
The conditions of data set [8]: drug with Motor1; 20 mM sodium phosphate buffer (pH=7.4); phase diagram.
The conditions of data set [9]: guest with Motor1; 20 mM sodium phosphate, pH = 7.4; direct UV/Vis titration (dyes) or indicator displacement.
Data set [10] has as its system HepG2. To be noted: human, 48 h, 1 mM.
The test system of data set [11] is HEK293. To be noted: human, 48 h, 1 mM.
Data set [12] relates to HEK293. Particulars: human, 48 h, 1 mM. This is another data set of the same source.
A short description of data set [13]: Phase-solubility of pharmaceutical agents with Motor2 (1H NMR). Particulars: drug solubilized with Motor2; 20 mM sodium phosphate buffer (pH=7.4); phase diagram.
In the next data set the test system is MCF-7. The data set can be described thus: In vitro bioactivity of Paclitaxel complexed with Motor1, MCF-7. Format: cell-based. To be noted: Paclitaxel 0.6 mM complexed, Paclitaxel 0.002 mM alone, Motor1 5 mM alone.
For data set [14] the following is noted: Motor2 toward drug; 1:1 inclusion complex; Ka=Slope/[S0(1−Slope)].
For data set [15] the following is noted: Motor1 toward drug; 1:1 inclusion complex; Ka=Slope/[S0(1−Slope)].
The test system of a further data set is Hela. The data set is described as follows: In vitro bioactivity of Paclitaxel complexed with Motor1, Hela. Format: cell-based. Particulars: Paclitaxel 0.6 mM complexed, Paclitaxel 0.002 mM alone, Motor1 5 mM alone.
Data set [16] has as its system HepG2. The data set is described as follows: AK (adenylate kinase) release cytotoxicity assay, HepG2. Format: cell-based, human. Particulars: 1 mM, untreated population 60%.
Data set [17] has as its system TA100. The data set can be described thus: Ames test, strain TA100. To be noted: −S9.
The subject of data set [18] is S. typhimurium strain TA1535. The data set is described as follows: Ames test, strain TA1535. To be noted: −S9.
Another data set addresses T1, hERG (Homo sapiens, UniProt Q12809).
T1 construct: host or cells: transfected HEK-293 cells
Particulars: transfected HEK-293 cells; HP-β-CD up to 4.2 mg/mL; cited from earlier work.

Where [19] appears, read: IV Route, Motor1.ABZ (681 and 3.2 mg/kg).

T1 sequence (Q12809 whole entry): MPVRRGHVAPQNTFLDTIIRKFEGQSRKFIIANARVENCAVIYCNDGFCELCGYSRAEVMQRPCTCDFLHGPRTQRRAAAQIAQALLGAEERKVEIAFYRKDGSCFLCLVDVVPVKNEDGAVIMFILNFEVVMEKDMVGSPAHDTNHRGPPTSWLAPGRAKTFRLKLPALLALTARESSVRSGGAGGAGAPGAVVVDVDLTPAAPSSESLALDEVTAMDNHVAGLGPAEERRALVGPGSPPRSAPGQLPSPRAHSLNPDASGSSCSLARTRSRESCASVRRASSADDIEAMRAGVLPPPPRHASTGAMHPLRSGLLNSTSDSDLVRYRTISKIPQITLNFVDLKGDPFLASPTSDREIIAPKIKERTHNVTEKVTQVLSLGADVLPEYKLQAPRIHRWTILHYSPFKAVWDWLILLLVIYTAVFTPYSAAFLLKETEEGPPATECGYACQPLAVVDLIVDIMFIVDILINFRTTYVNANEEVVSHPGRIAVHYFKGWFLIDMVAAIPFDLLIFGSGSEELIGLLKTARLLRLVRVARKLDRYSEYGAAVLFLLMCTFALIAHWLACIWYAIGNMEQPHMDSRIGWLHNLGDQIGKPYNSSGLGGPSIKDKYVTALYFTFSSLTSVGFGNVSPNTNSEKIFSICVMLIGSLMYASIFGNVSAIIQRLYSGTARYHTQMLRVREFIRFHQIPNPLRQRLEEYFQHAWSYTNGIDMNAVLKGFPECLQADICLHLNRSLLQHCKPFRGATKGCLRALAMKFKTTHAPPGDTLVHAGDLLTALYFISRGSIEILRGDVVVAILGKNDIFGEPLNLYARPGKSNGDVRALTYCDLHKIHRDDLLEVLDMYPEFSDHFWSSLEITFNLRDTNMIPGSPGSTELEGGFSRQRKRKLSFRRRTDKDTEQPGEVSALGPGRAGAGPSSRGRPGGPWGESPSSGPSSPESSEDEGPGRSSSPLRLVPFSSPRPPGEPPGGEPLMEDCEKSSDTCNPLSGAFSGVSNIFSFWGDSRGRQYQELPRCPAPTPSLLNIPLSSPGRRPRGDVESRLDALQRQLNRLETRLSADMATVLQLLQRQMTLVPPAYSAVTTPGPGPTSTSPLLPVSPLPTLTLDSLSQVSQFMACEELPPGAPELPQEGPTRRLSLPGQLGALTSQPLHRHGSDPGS

For `Nc1ccc2cc3ccccc3cc2c1` [2-aminoanthracene], the “revertant colonies, positive control” value in the data set on TA100 [1] stood at 1345 colonies; in data set [2], 27 colonies; in the data set on TA98 strain (10 μg/plate), 1084 colonies; in the data set on TA1537 strain (+S9) it was 122 colonies.

In the case of `CCCS(=O)(=O)c1ccc2nc(NC(=O)OC)[nH]c2c1` [ABZSO2, albendazole sulfone], in data set [3], the “Absolute Bioavailability (%)” value is listed as 81%. Besides, the “tmax” value worked out at 2 h in data set [3] (ip, 3.2 mg/kg) and 2 h in data set [4].

Take `CCC[S+]([O-])c1ccc2[nH]c(NC(=O)OC)nc2c1` (centres unmarked) [ABZSO, albendazole sulfoxide]: in data set [5] (IP Route relative to IV), the “Absolute Bioavailability (%)” value was 43%. Also, the area under the curve (AUC) (in general, concentration integrated over time) came out at 6.15 µg·h/mL in data set [5] (IP Route, Motor1.ABZ (681 and 3.2 mg/kg)); 14.30 µg·h/mL in data set [6] (setting [19]). The maximum concentration (Cmax) – broadly, the maximum level reached in the sampled fluid or tissue – in [5] (IP Route, one injection of Motor1.ABZ (681 and 3.2 mg/kg), plasma) came out at 2.62 µg/mL; in data set [6] (IV Route, one injection of Motor1.ABZ (681 and 3.2 mg/kg), plasma), 4.34 µg/mL. Moreover, the tmax in data set [5] (IP administration, Motor1.ABZ (681 and 3.2 mg/kg)) is 15 min; in [6] (setting [19]), 30 min. Besides, the plasma concentration was 0.298 µg/mL and 0.400 µg/mL and 0.817 µg/mL and 0.816 µg/mL and 0.6 µg/mL in data set [5] (t = 5, individual mice); 2.46 µg/mL and 2.16 µg/mL and 2.91 µg/mL and 2.934 µg/mL in data set [5] (t = 15 min, individual mice); 2.35 µg/mL and 2.65 µg/mL and 2.32 µg/mL and 2.48 µg/mL in [5] (t = 30 min, individual mice); 1.06 µg/mL and 0.564 µg/mL and 0.463 µg/mL and 0.764 µg/mL and 0.888 µg/mL in data set [5] (t = 2 h, individual mice); 0.417 µg/mL and 0.361 µg/mL and 0.431 µg/mL and 0.091 µg/mL in data set [5] (t = 4 h, individual mice); 0.158 µg/mL and 0.131 µg/mL in [5] (t = 8 h, individual mice). Besides, the plasma concentration is 2.31 µg/mL and 2.97 µg/mL and 1.93 µg/mL and 1.84 µg/mL and 2.74 µg/mL and 2.63 µg/mL and 2.03 µg/mL and 2.07 µg/mL and 2.33 µg/mL in data set [6] (t = 5 min, individual mice (duplicates a, b)); 3.36 µg/mL and 3.37 µg/mL and 3.1 µg/mL and 2.90 µg/mL and 3.88 µg/mL and 3.58 µg/mL in [6] (t = 15 min, individual mice); 4.8 µg/mL and 4.21 µg/mL and 4.1 µg/mL and 3.74 µg/mL and 4.24 µg/mL in [6] (t = 30 min, individual mice); 2.11 µg/mL and 1.59 µg/mL and 2.1 µg/mL and 2.49 µg/mL and 2.81 µg/mL and 2.4 µg/mL in data set [6] (t = 2 h, individual mice); 0.923 µg/mL and 0.821 µg/mL and 0.777 µg/mL and 0.65 µg/mL in [6] (t = 4 h, individual mice); 0.404 µg/mL and 0.433 µg/mL and 0.51 µg/mL and 0.475 µg/mL in data set [6] (t = 8 h, individual mice). Further, the plasma concentration in data set [6] (t = 16 h, individual mice) was 0.03 µg/mL and 0.047 µg/mL and 0.052 µg/mL and 0.072 µg/mL and 0.042 µg/mL. In addition, the concentration at 15 min stood at 2820 ng/mL in [5] (Swiss Webster, mouse, in vivo, ip, plasma concentration, t = 15 min, individual mice) and 3490 ng/mL in [6] (Swiss Webster, mouse, in vivo, iv, plasma concentration, t = 15 min, individual mice). Also, the concentration at 30 min in data set [5] (Swiss Webster, mouse, in vivo, ip, plasma concentration, t = 30 min, individual mice) is 3050 ng/mL; in data set [6] (Swiss Webster, mouse, in vivo, iv, plasma concentration, t = 30 min, individual mice), 3960 ng/mL. Further, the concentration at 8 h in data set [5] (Swiss Webster, mouse, in vivo, ip, plasma concentration, t = 8 h, individual mice) turned out to be 183 ng/mL; in data set [6] (Swiss Webster, mouse, in vivo, iv, plasma concentration, t = 8 h, individual mice) it was 330 ng/mL. The molecule further had a concentration at 16 h in data set [5] (Swiss Webster, mouse, in vivo, ip, plasma concentration, t = 16 h, individual mice) of 44 ng/mL. Also, the concentration at 5 min in [6] (Swiss Webster, mouse, in vivo, iv, plasma concentration, t = 5 min, individual mice (duplicates a, b)) came to 2880 ng/mL. In addition, the concentration at 2 h in data set [6] (Swiss Webster, mouse, in vivo, iv, plasma concentration, t = 2 h, individual mice) is 1590 ng/mL. The concentration at 4 h in [6] (Swiss Webster, mouse, in vivo, iv, plasma concentration, t = 4 h, individual mice) is 614 ng/mL.

With `O=C1N2CN3C(=O)N4CN5C(=O)N6CN7C(=O)N8CN9C(=O)N%10CN%11C(=O)N%12CN%13C(=O)N%14CN1C1C2N2CN%15C(=O)N(CN%16C(=O)N(CN%17C(=O)N(CN%18C(=O)N(CN%19C(=O)N(CN%20C(=O)N(CN1C2=O)C%14C%13%20)C%12C%11%19)C%10C9%18)C8C7%17)C6C5%16)C4C3%15` (centres unmarked) [CB[7]], in [7], the Solubility entry is recorded as “≈ 20 mM”.

For the molecule `C(=C\c1ccccc1)/CN1CCN(C(c2ccccc2)c2ccccc2)CC1` [Cinnarizine], in [8], the Solubility enhancement was found to be 354 fold.

Take `COC(=O)[C@H](c1ccccc1Cl)N1CCc2sccc2C1` [Clopidogrel]: the Solubility enhancement in [8] was found to be 1220 fold.

Consider `CN(C)c1ccc(C(=C2C=CC(=[N+](C)C)C=C2)c2ccc(N(C)C)cc2)cc1` [Crystal Violet Dye, Crystal Violet], for which, in [9], the Ka was 5.2 ± 0.8 × 10^6.

Take `COc1cccc2c1C(=O)c1c(O)c3c(c(O)c1C2=O)C[C@@](O)(C(C)=O)C[C@@H]3O[C@H]1C[C@H](N)[C@H](O)[C@H](C)O1` [Daunomycin]: the “revertant colonies, positive control” value in the data set on TA98 strain (6 μg/plate) is reported as 361 colonies.

In the case of `CC[C@H]1OC(=O)[C@H](C)[C@@H](O[C@H]2C[C@@](C)(OC)[C@@H](O)[C@H](C)O2)[C@H](C)[C@@H](O[C@@H]2O[C@H](C)C[C@H](N(C)C)[C@H]2O)[C@](C)(O)C[C@@H](C)C(=O)[C@H](C)[C@@H](O)[C@]1(C)O` [Erythromycin], the figures for the “cell viability (MTS)” value in the data set on HepG2 [10] and with HEK293 [12] were 36% and 47%, respectively. The “cell death (AK)” value with HEK293 [11] is on record as 25%.

For `COc1ccc2nc3cc(Cl)ccc3c(NCCCNCCCl)c2c1` [ICR 191 Acridine], in the data set on TA1537 strain (−S9), the “revertant colonies, positive control” value is listed as 91 colonies.

Take `N[C@@H](Cc1ccc(N(CCCl)CCCl)cc1)C(=O)O` [Melphalan]: the Solubility enhancement in data set [8] came to 655 fold.

On to `CC[C@@]1(O)C(=O)OCc2c1cc1n(c2=O)Cc2cc3ccccc3nc2-1` [S-camptothecin], for which the Solubility enhancement in [13] worked out at 580 fold.

Regarding `CC(=O)O[C@H]1C(=O)[C@@]2(C)[C@H]([C@H](OC(=O)c3ccccc3)[C@]3(O)C[C@H](OC(=O)[C@H](O)[C@@H](NC(=O)c4ccccc4)c4ccccc4)C(C)=C1C3(C)C)[C@]1(OC(C)=O)CO[C@@H]1C[C@@H]2O` [Taxol], the “DNA fragmentation and cell death in comparison to untreated” value with MCF-7 and in the data set on Hela was “little to no cell death” each time. In data set [8], the Solubility enhancement is given as 2750 fold. For the same molecule, the figures for the Ka in [14] and in data set [15] were 31000 M⁻¹ and 19000 M⁻¹, respectively.

Regarding `Nc1ccc(N)cc1` [benzene-1,4-diamine], in data set [9], the Ka was 3.5 ± 0.2 × 10^5.

With `NCCCCN` [butane-1,4-diamine], in data set [9], the Ka is 1.2 ± 0.1 × 10^5.

With `CCC(=O)O[C@H]1[C@H](O[C@@H]2[C@@H](C)[C@H](O[C@H]3C[C@@](C)(OC)[C@@H](O)[C@H](C)O3)[C@@H](C)C(=O)O[C@H](CC)[C@@](C)(O)[C@H](O)[C@@H](C)C(=O)[C@H](C)C[C@@]2(C)O)O[C@H](C)C[C@@H]1N(C)C` [erythromycin estolate], the figures for the “cell viability (MTS)” value with HepG2 [10] and with HEK293 [12] were 10% and 11%, respectively. The “cell death (AK)” value in the data set with HEK293 [11] worked out at 49%; with HepG2 [16] it was 100%.

Consider `COc1ccc2c(c1)c(CC(=O)O)c(C)n2C(=O)c1ccc(Cl)cc1` [indomethacin], for which the Solubility enhancement in data set [13] is given as 56 fold.

Consider `[N-]=[N+]=[N-]` [sodium azide], for which the “revertant colonies, positive control” value with TA100 [17] is recorded as 167 colonies; in [18], 232 colonies.

As to `C[N+](C)(C)CCOC(=O)CCC(=O)OCC[N+](C)(C)C` [succinyl choline], in data set [9], the Ka is reported as 1.9 ± 0.1 × 10^5.

As to `Cc1c(Cl)cccc1Nc1ccccc1C(=O)O` [tolfenamic acid], in [13], the Solubility enhancement was determined as 37 fold.

With hydroxypropyl-β-CD [HP-β-CD], on hERG, the “interference with the hERG” value was “significant, non-dose dependent interference”.

Source of the values: patent US9566351B2, “Molecular containers and methods of making and using same” (University of Maryland, College Park, priority 2010, dated 2017).
